In article PMC9959553, “Promising Antifungal Molecules against Mucormycosis Agents Identified from Pandemic Response Box®: In Vitro and In Silico Analyses” (Journal of Fungi, 2023):

Tested on: R. oryzae UCP1295
Test: Screening of the Pandemic Response Box library at 5 µM
Assay type: cell-based, Rhizopus oryzae
Conditions: 48 h, Table S1, mean of the four values
How it was run: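 Growth inhibition was read at 600 nm after conidia (2 × 10^5/mL) grew 48 h at 37 °C, 5% CO2, with 5 μM compound in glucose-supplemented (2%), MOPS-buffered RPMI (pH 7.2). Controls were posaconazole at 5 μM and 1% DMSO. The selection cut-off was at least 60% inhibition.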

SMILES	% of growth inhibition, Mean
C[C@H](NC(=O)C(=O)Nc1ccccc1C(C)(C)C)C(=O)N[C@@H](CC(=O)O)C(=O)COc1c(F)c(F)cc(F)c1F [MMV1580794]	1.8%
CC[C@@]1(O)C(=O)OCc2c1cc1n(c2=O)Cc2cc3c([N+](=O)[O-])cccc3nc2-1 [MMV1580796]	-1.7%
OCCC#Cc1nc(-c2ccc(F)cc2)c(-c2ccncc2)n1CCCc1ccccc1 [MMV1580797]	-16.9%
Cc1[nH]c2ccccc2c1CC(=O)N[C@@H](Cc1ccccc1)C(=O)N(C)c1ccccc1 [MMV1580798]	-2.6%
COc1ccc(COc2cc3oc(=O)c4cc(C(C)O)ccc4c3cc2OC)cc1 (centres unmarked) [MMV1580799]	-1.6%
N#Cc1cc([N+](=O)[O-])ccc1Oc1ccccc1Cl [MMV1580800]	-8.1%
Cc1nc2ccc(Cl)cc2c(-c2ccccc2)c1CC(=O)O [MMV1580801]	-8.7%
Nc1nc(NC2Cc3ccc(F)cc3C2)nc(N2CCCCC2)n1 (centres unmarked) [MMV1580839]	-3.1%
O=C(Nc1ccc(Cl)c(C(F)(F)F)c1)C(CCCl)C(=O)Nc1ccc(Cl)c(C(F)(F)F)c1 [MMV1580840]	-7.5%
O=S(=O)(NCB(O)O)c1cc2c(Cl)ccc(Cl)c2s1 [MMV1580841]	-42.4%
Clc1cc2nc(C3CCNCC3)n(Cc3ccc(CNCCc4c[nH]cn4)cc3)c2cc1Cl [MMV1580842]	0.4%
C[Si]1(C)CCN(Cc2cc(-c3ccc(Cl)cc3)n(-c3ccc(Cl)cc3)n2)CC1 [MMV1580843]	-17.9%
CC(=O)N[C@H](C)C(=O)N[C@H](Cc1ccccc1)C(=O)O [MMV1580845]	-37.6%
COc1ccc(SC(=O)N[C@H](CCC(=O)O)C(=O)O)cc1 [MMV1580846]	-33.5%
CCCCCc1ccc(C(=O)NCCn2cc(CCCCCc3c[nH]c(N)n3)nn2)cc1.Cl [MMV1580847]	-16.8%
NC(=O)c1cnc2ccc(S(=O)(=O)c3ccccc3)cc2c1Nc1ccc(O)cc1 [MMV1580848]	-15.6%
C=CCc1cc(Cc2cnc(N)nc2N)cc(OC)c1O [MMV1580849]	-19.9%
Fc1ccc(-n2cc(Cn3c(-c4cccc(F)c4)nc4ccccc43)nn2)cc1 [MMV1580850]	-26.0%
CCCCCOc1ccc(/C=C2\Oc3c(ccc(O)c3O)C2=O)c(O)c1 [MMV1580851]	-13.7%
CCCCc1ccc(-c2cc(C(=O)O)cc(-c3ccc(Cl)cc3)n2)cc1 [MMV1580852]	-12.9%
O=C(Nc1cccc(C2=NCCN2)c1)c1ccc(-c2ccc(C(=O)Nc3cccc(C4=NCCN4)c3)cc2)cc1 [MMV1580853]	-34.0%
CCc1cc(O)c(Oc2cccnc2N)cc1F [MMV1580854]	-36.7%
O=C(O)c1sccc1S(=O)(=O)n1ccc2cc(Br)ccc21 [MMV1580855]	-1.0%
Cc1ccccc1NC(=O)Nc1cccc([N+](=O)[O-])c1 [MMV1581029]	1.6%
CN(C(=O)C1(c2ccc(Cl)cc2)CCC1)c1ccccc1 [MMV1581030]	-7.5%
FC(F)(F)Oc1ccc(Nc2ccc3cccc(Cl)c3n2)cc1 [MMV1581032]	-3.7%

SMILES	% of growth inhibition, Mean
N[C@H](CCC(=O)N[C@@H](Cc1c[nH]c2ccccc12)C(=O)O)C(=O)O [MMV1581033]	2.8%
Cc1c(F)cccc1NC(=O)Nc1ccc(Cl)c(S(=O)(=O)[C@H]2CCCNC2)c1O [MMV1581034]	-0.9%
NC(=O)c1ccc(I)c([N+](=O)[O-])c1 [MMV1581035]	-5.0%
COc1ccc(C[C@@H](C)[C@@H](C)Cc2ccc(OC)c(OC)c2)cc1OC [MMV1581036]	-8.8%
O=C1[C@H](CC[C@H](O)c2ccc(F)cc2)[C@@H](c2ccc(O)cc2)N1c1ccc(F)cc1 [MMV1581377]	3.5%
Nc1ccc2oc(=O)ccc2c1I [MMV1581378]	-3.7%
Cc1cc(O)c2c(c1)C(=O)c1c(I)c(O)c(I)c(O)c1C2=O [MMV1581545]	-41.8%
O=c1cc(Nc2ccc3ccccc3c2)[nH]c(=O)[nH]1 [MMV1581546]	-6.0%
CC(C)(C)OC(=O)NCc1ccc(C(=O)N[C@H]2CCOC2=O)cc1 [MMV1581547]	-3.1%
CC(C)(C)c1cccc(-c2nc3cc(C(=N)N)ccc3[nH]2)c1O [MMV1581548]	-15.8%
CCc1nc(N)nc(N)c1C#CCc1ccccc1 [MMV1581549]	18.7%
OC1O[C@H](CSc2ccc(F)cc2)[C@@H](O)[C@H]1O (some centres unmarked) [MMV1581550]	-29.6%
c1ccc(-c2nnc3c4ccccc4c(N4CCNCC4)nn23)cc1 [MMV1581551]	-11.4%
O=C(Nc1ccccc1)N(Cc1cc(Br)ccc1O)c1ccc(F)cc1 [MMV1581552]	-12.1%
COc1ccc2c(c1)cc(CNC(=O)c1cc3ccccc3o1)n2CC(=O)O [MMV1581553]	-20.7%
Nc1cc(N)c2nc(-c3ccccc3)c(Nc3ccc(F)cc3)nc2c1 [MMV1581554]	-29.5%
Nc1cccc(-c2nc(N)nc(NC3Cc4ccccc4C3)n2)c1 [MMV1581555]	-6.9%
NC(=O)c1[nH]c2ccc(S(N)(=O)=O)cc2c1-c1ccccc1 [MMV1581556]	-42.8%
O=C(N[C@H](CCS)C(=O)N[C@H](Cc1ccccc1)C(=O)O)c1cc2ccccc2[nH]1 [MMV1581557]	0.3%
Cc1cccc(C)c1C(=O)Nc1nc(-c2ccccn2)cc2ccccc12 [MMV1581558]	53.3%
CC(C)Cn1c(=O)n(C)c(=O)c2c(-c3cncn3C)n(Cc3cccc4ccccc34)nc21 [MMV1581559]	-18.9%
CC(=N)N1CC[C@H](SC2=C(C(=O)O)N3C(=O)[C@@H]([C@@H](C)O)[C@H]3C2)C1 [MMV1582382]	-12.0%
CCCCCCCCC(CP(=O)(O)C(C)N)C(=O)O (centres unmarked) [MMV1582487]	-11.5%
Cl.Nc1nc(-c2ccccc2)nc2c1ncn2[C@@H]1O[C@H](COS(=O)(=O)NC(=O)c2ccccc2O)[C@@H](O)[C@H]1O [MMV1582488]	-7.5%
Cc1c[nH]c(=O)nc1NCc1ccccc1 [MMV1582489]	-18.8%
CCc1cc(Cc2cnc(N)nc2N)cc2c1N(C)CCC2C (centres unmarked) [MMV1582490]	-3.0%

SMILES	% of growth inhibition, Mean
O=C(CCCC(F)(F)F)N1CCC(c2nc(-c3nccs3)no2)CC1 [MMV1582491]	-26.7%
Cc1nc(-c2ccc(C3N(C)c4ccc(F)cc4C(=O)N3c3ccccc3)s2)cs1 (centres unmarked) [MMV1582492]	-6.7%
C[C@@H](NC(=O)c1ccccc1-c1ccccc1)B(O)O [MMV1582493]	-37.1%
C[C@@H](O)[C@H](N)C(=O)NS(=O)(=O)c1cccc(-c2ccc3[nH]ncc3c2)c1.Cl.Cl [MMV1582494]	-14.6%
C(=C\c1nc2ccccc2[nH]1)/c1ccc2c(c1)OCO2 [MMV1582495]	-6.2%
N#Cc1c(F)c(Cl)c(NCc2ccccc2)c(C#N)c1F [MMV1582496]	-1.3%
CC(C)c1ccc(COc2cccc(-c3cc([S+](C)[O-])c(C#N)c(=O)[nH]3)c2)cc1 (centres unmarked) [MMV1582497]	-17.1%
Cc1cc(Nc2ccc(F)cc2)nc(SCc2nc3ccccc3[nH]2)n1 [MMV1582498]	-17.0%
CCC(CC)[C@H](NC(C)=O)[C@@H]1[C@H](O)[C@@H](C(=O)O)C[C@H]1NC(=N)N [MMV1593511]	1.4%
CCCCCCCCCN1C[C@@H](O)[C@H](O)[C@@H](O)[C@@H]1CO [MMV1593513]	-2.2%
CNC(=O)C1O[C@@H](n2cnc3c(NCc4cccc(I)c4)nc(Cl)nc32)[C@H](O)[C@@H]1O (some centres unmarked) [MMV1593514]	-5.2%
CCOC(=O)N[C@@H]1CC[C@@H]2[C@@H](C1)C[C@H]1C(=O)O[C@H](C)[C@H]1[C@H]2/C=C/c1ccc(-c2cccc(F)c2)cn1 [MMV1593515]	26.6%
O=C(O)[C@H]1C2CCC(CC2)[C@@H]1Nc1nc(-c2c[nH]c3ncc(F)cc23)ncc1F [MMV1593516]	-10.6%
O=C(/C=C/n1cnc(-c2cc(C(F)(F)F)cc(C(F)(F)F)c2)n1)NNc1cnccn1 [MMV1593517]	-8.5%
C[C@@]1(O)[C@H](O)[C@@H](CO)O[C@H]1n1ccc2c(N)ncnc21 [MMV1593519]	10.3%
[N-]=[N+]=N[C@H]1C[C@H](n2ccc(=O)[nH]c2=O)O[C@@H]1CO [MMV1593520]	4.5%
CC(C)Nc1nc2cc(Cl)c(Cl)cc2n1[C@H]1O[C@@H](CO)[C@H](O)[C@@H]1O [MMV1593521]	-13.4%
O=C(Nc1ccc(-c2ccccc2)cc1)C1=C(O)C(Cc2ccccc2)OC1=O (centres unmarked) [MMV1593531]	-29.2%
O=C(Nc1ncc(Cc2cccc3ccccc23)s1)C1CCCCC1 [MMV1593532]	-14.7%
C[C@H]1[C@@H](c2cccc(C(F)(F)F)c2)OC(=O)N1C(=O)NCc1cncc2ccccc12 [MMV1593533]	-13.8%
CCNC(=O)Nc1cc(-c2ccccc2)c(-c2cncc(C(=O)O)c2)cn1 [MMV1593534]	-20.0%
CCCCCCC1c2ccc(O)cc2Oc2cc(O)ccc21 [MMV1593535]	-3.0%
Fc1ccc(-c2nc(-c3c[nH]c4ccc(Br)cc34)[nH]c2-c2ccc(F)cc2)cc1 [MMV1593537]	-11.7%
Cl.NC1(C(=O)O)CCP(=O)(O)CC1 (centres unmarked) [MMV1593538]	0.4%
O=[N+]([O-])c1ccc2c(CCc3c[nH]c4ccccc34)c[nH]c2c1 [MMV1593539]	-2.0%
